Legend:
[1] = Cytotoxicity against human HT-29 cells after 72 hrs by MTT assay; conditions: HT-29, 72 h
[2] = Cytotoxicity against human MKN45 cells after 72 hrs by MTT assay; conditions: MKN-45, 72 h
[3] = Cytotoxicity against human A549 cells after 72 hrs by MTT assay; conditions: A549, 72 h
[4] = biological target: ALK tyrosine kinase receptor (Homo sapiens, UniProt Q9UM73); experiment: Inhibition of ALK (unknown origin)
[5] = tested on: HT-29; experiment: Potency index, ratio of foretinib IC50 to compound IC50 for human HT-29 cells; assay type: functional
[6] = biological target: T1, Receptor-type tyrosine-protein kinase FLT3 (Homo sapiens, UniProt P36888); experiment: Inhibition of FLT3 (unknown origin)
T1 sequence (P36888 whole entry): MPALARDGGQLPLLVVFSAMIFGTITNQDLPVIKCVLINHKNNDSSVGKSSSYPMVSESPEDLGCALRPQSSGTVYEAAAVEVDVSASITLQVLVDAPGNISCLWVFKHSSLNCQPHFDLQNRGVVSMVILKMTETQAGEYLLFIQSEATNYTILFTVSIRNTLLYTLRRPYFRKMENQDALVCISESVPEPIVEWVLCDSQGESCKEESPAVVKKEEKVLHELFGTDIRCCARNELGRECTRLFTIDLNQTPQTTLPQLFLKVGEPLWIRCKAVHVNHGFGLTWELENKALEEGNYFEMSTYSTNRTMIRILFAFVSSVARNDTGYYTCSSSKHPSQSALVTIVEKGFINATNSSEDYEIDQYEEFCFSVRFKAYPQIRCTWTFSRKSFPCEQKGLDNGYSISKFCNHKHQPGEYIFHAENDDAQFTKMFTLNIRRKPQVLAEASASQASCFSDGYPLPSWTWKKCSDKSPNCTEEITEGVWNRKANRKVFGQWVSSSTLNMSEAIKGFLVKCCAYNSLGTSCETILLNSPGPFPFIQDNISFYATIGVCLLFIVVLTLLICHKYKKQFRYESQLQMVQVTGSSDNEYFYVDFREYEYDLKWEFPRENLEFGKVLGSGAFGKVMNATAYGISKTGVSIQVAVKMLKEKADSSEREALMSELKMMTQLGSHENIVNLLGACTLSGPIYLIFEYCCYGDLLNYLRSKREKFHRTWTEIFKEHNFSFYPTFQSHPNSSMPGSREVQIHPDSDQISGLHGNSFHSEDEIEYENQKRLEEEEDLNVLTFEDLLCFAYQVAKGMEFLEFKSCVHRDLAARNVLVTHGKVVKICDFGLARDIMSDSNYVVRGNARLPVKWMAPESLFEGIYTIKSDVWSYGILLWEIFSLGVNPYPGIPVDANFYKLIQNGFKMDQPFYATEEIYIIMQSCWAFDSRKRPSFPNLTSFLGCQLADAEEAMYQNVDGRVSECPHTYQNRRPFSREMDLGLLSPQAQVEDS

[7] = biological target: Epidermal growth factor receptor (Homo sapiens, UniProt P00533); experiment: Inhibition of EGFR (unknown origin)
[8] = tested on: A549; experiment: Potency index, ratio of foretinib IC50 to compound IC50 for human A549 cells; assay type: functional
[9] = tested on: MKN-45; experiment: Potency index, ratio of foretinib IC50 to compound IC50 for human MKN45 cells; assay type: functional
[10] = biological target: Vascular endothelial growth factor receptor 2 (Homo sapiens, UniProt P35968); experiment: Inhibition of VEGFR-2 (unknown origin)
[11] = biological target: Mast/stem cell growth factor receptor Kit (Homo sapiens, UniProt P10721); experiment: Inhibition of c-KIT (unknown origin)
[12] = biological target: Hepatocyte growth factor receptor (Homo sapiens, UniProt P08581); experiment: Inhibition of c-MET (unknown origin) using poly (Glu, Tyr) 4:1 as substrate after 30 mins by HTRF assay

Sequence of Epidermal growth factor receptor (P00533 whole entry): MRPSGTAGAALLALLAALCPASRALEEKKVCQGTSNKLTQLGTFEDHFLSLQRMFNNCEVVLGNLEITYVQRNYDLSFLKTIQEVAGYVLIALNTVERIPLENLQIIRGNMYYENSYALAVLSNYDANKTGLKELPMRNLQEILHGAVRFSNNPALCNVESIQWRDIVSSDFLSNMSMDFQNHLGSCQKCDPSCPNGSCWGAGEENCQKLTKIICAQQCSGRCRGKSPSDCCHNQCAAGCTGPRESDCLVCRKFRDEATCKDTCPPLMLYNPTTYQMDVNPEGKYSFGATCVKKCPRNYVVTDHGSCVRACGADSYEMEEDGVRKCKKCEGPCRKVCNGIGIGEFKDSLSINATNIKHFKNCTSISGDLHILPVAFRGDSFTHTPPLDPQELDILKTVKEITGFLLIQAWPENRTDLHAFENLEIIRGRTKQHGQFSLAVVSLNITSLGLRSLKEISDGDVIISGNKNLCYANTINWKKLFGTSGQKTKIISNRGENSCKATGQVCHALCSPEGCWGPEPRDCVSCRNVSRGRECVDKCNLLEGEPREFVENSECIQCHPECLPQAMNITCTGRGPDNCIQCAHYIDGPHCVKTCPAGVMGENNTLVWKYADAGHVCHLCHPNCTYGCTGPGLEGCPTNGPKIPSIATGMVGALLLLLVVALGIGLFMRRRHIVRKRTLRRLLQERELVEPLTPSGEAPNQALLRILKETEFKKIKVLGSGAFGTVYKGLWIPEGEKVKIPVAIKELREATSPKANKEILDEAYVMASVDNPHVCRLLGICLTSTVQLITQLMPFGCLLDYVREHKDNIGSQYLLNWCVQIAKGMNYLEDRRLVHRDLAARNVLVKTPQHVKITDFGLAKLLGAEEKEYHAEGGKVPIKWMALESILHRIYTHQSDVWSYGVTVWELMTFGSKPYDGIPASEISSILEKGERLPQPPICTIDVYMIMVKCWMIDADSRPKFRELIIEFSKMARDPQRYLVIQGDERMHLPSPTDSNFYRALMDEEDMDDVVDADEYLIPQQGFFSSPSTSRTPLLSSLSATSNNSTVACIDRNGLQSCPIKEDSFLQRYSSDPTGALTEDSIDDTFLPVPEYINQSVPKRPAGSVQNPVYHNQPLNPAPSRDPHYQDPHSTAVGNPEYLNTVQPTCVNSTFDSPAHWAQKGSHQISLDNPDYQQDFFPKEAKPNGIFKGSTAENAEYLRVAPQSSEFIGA
Sequence of ALK tyrosine kinase receptor (Q9UM73 whole entry): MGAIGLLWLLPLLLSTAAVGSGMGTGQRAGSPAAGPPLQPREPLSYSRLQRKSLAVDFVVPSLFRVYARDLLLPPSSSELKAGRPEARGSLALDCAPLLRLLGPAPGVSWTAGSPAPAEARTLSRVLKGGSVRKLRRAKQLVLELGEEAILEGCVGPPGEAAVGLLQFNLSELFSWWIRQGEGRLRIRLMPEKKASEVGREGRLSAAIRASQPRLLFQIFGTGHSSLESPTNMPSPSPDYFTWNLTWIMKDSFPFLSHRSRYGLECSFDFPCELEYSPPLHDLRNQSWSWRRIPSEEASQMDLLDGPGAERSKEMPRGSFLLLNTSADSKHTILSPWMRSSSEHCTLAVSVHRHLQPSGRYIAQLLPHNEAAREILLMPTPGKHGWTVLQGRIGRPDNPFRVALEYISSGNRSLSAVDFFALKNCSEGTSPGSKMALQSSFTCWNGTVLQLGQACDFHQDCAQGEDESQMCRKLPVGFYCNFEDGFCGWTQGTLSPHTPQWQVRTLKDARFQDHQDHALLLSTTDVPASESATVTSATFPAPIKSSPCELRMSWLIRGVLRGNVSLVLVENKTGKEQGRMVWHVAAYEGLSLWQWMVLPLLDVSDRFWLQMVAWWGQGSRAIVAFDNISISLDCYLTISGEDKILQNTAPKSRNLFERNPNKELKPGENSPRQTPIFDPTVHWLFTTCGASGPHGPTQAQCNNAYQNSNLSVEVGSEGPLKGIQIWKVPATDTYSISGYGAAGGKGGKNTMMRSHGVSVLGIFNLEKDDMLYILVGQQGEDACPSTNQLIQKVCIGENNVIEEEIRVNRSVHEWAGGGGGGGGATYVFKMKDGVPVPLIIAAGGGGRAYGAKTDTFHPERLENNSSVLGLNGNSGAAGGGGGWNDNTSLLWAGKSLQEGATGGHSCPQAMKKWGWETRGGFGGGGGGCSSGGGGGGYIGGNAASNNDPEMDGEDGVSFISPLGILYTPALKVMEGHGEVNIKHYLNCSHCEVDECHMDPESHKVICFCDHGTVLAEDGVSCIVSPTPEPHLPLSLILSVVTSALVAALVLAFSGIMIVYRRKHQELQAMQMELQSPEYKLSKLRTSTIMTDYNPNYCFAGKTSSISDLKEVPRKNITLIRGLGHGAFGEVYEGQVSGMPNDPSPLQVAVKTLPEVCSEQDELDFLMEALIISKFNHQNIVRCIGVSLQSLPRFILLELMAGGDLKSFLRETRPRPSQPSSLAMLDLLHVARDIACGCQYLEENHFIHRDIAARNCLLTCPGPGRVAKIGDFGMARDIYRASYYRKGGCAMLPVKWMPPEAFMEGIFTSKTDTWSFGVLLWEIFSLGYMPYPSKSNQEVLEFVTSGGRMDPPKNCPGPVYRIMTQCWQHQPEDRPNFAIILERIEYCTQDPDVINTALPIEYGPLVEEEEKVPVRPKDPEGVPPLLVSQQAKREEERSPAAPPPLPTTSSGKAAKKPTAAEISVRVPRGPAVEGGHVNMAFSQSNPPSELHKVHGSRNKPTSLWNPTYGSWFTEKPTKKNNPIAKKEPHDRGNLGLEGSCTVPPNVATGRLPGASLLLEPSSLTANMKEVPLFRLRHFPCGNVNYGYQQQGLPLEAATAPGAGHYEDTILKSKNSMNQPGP
Sequence of Mast/stem cell growth factor receptor Kit (P10721 whole entry): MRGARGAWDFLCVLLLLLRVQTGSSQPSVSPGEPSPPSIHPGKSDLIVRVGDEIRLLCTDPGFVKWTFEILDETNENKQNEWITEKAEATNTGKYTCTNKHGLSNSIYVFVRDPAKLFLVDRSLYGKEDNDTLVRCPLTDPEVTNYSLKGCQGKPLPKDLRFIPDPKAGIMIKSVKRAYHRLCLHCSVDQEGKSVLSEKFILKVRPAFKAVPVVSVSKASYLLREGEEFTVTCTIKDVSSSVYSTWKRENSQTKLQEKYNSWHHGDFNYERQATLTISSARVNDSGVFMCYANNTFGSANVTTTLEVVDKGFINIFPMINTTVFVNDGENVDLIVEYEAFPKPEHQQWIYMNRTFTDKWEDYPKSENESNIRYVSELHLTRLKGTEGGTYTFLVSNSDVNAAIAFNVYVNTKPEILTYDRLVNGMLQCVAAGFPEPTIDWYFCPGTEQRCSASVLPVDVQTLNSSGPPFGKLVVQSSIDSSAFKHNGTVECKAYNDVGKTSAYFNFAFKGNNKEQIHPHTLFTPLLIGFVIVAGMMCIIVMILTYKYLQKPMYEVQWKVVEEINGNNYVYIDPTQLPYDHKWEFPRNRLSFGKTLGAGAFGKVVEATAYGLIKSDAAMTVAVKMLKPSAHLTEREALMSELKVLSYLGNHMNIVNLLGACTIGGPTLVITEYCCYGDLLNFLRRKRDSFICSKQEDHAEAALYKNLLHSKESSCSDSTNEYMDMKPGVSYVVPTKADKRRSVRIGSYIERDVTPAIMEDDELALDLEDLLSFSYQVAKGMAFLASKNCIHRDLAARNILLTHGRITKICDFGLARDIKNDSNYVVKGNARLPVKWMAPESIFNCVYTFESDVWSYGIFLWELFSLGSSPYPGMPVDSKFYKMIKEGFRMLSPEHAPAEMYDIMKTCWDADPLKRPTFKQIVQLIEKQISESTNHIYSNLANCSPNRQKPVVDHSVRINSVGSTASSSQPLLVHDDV

| SMILES | IC50 [1] | IC50 [2] | IC50 [3] | other results |
| --- | --- | --- | --- | --- |
| COc1cc2c(Oc3ccc(NC(=O)c4cn(-c5ccccc5OC)cn4)cc3F)ccnc2cc1OCCCN1CCOCC1 | 200 nM | 320 nM | 150 nM | – |
| COc1cc2c(Oc3ccc(NC(=O)/C=C/S(=O)(=O)c4ccccc4OC)cc3F)ccnc2cc1OCCCN1CCOCC1 | 1180 nM | 1470 nM | 770 nM | – |
| COc1cc2c(Oc3ccc(NC(=O)c4cn(-c5ccccc5OC(F)(F)F)cn4)cc3F)ccnc2cc1OCCCN1CCCCC1 | 250 nM | 190 nM | 270 nM | – |
| COc1cc2c(Oc3ccc(NC(=O)c4cn(-c5ccccc5OC)cn4)cc3F)ccnc2cc1OCCCN1CCCCC1 | 100 nM | 260 nM | 120 nM | – |
| COc1cc2c(Oc3ccc(NC(=O)c4cn(-c5cc(C)ccc5C)cn4)cc3F)ccnc2cc1OCCCN1CCCCC1 | 580 nM | 830 nM | 510 nM | – |
| COc1ccc(S(=O)(=O)/C=C/C(=O)Nc2ccc(Oc3ccnc4cc(OCCCN5CCCCC5)c(OC)cc34)c(F)c2)cc1 | 1650 nM | 3580 nM | 2220 nM | – |
| COc1cc2c(Oc3ccc(NC(=O)c4cn(-c5ccc(Cl)cc5Cl)cn4)cc3F)ccnc2cc1OCCCN1CCN(C)CC1 | 3050 nM | 4840 nM | 3850 nM | – |
| COc1ccc(S(=O)(=O)/C=C/C(=O)Nc2ccc(Oc3ccnc4cc(OCCCN5CCN(C)CC5)c(OC)cc34)c(F)c2)cc1 | 1660 nM | 2770 nM | 1870 nM | – |
| COc1cc2c(Oc3ccc(NC(=O)c4cn(-c5ccccc5OC)cn4)cc3F)ccnc2cc1OCCCN1CCN(C)CC1 | 80 nM | 220 nM | 70 nM | IC50 [4]: > 3330 nM; Ratio IC50 [5]: 3.1; IC50 [6]: 400 nM; IC50 [7]: 690 nM; Ratio IC50 [8]: 2.1; Ratio IC50 [9]: 1.4; IC50 [10]: 589 nM; IC50 [11]: 270 nM; IC50 [12]: 1.1 nM |
| COc1cc2c(Oc3ccc(NC(=O)c4cn(-c5ccccc5OC(F)(F)F)cn4)cc3F)ccnc2cc1OCCCN1CCOCC1 | 430 nM | 180 nM | 520 nM | – |
| COc1cc2c(Oc3ccc(NC(=O)/C=C/S(=O)(=O)c4ccccc4F)cc3F)ccnc2cc1OCCCN1CCOCC1 | 600 nM | 420 nM | 210 nM | – |
| COc1cc2c(Oc3ccc(NC(=O)/C=C/S(=O)(=O)c4ccccc4OC)cc3F)ccnc2cc1OCCCN1CCCCC1 | 660 nM | 980 nM | 470 nM | – |
| COc1cc2c(Oc3ccc(NC(=O)c4cn(-c5cc(C)ccc5C)cn4)cc3F)ccnc2cc1OCCCN1CCC(C)CC1 | 2220 nM | 5650 nM | 7420 nM | – |
| COc1cc2c(Oc3ccc(NC(=O)c4cn(-c5ccccc5OC(F)(F)F)cn4)cc3F)ccnc2cc1OCCCN1CCN(C)CC1 | 170 nM | 120 nM | 130 nM | – |
| COc1cc2c(Oc3ccc(NC(=O)/C=C/S(=O)(=O)c4ccccc4F)cc3F)ccnc2cc1OCCCN1CCN(C)CC1 | 150 nM | 280 nM | 150 nM | – |
| COc1cc2c(Oc3ccc(NC(=O)c4cn(-c5ccccc5OC)cn4)cc3F)ccnc2cc1OCCCN1CCC(C)CC1 | 300 nM | 600 nM | 400 nM | – |
| COc1cc2c(Oc3ccc(NC(=O)c4cn(-c5ccc(Cl)cc5)cn4)cc3F)ccnc2cc1OCCCN1CCCCC1 | 2780 nM | 5910 nM | 6560 nM | – |
| COc1cc2c(Oc3ccc(NC(=O)c4cn(-c5ccc(Cl)cc5Cl)cn4)cc3F)ccnc2cc1OCCCN1CCCCC1 | 4300 nM | 6240 nM | 7490 nM | – |
| COc1cc2c(Oc3ccc(NC(=O)/C=C/S(=O)(=O)c4ccccc4F)cc3F)ccnc2cc1OCCCN1CCC(C)CC1 | 760 nM | 840 nM | 410 nM | – |
| COc1cc2c(Oc3ccc(NC(=O)/C=C/S(=O)(=O)c4ccccc4OC)cc3F)ccnc2cc1OCCCN1CCN(C)CC1 | 270 nM | 430 nM | 320 nM | – |
| COc1cc2c(Oc3ccc(NC(=O)/C=C/S(=O)(=O)c4ccccc4OC)cc3F)ccnc2cc1OCCCN1CCC(C)CC1 | 1960 nM | 2030 nM | 3000 nM | – |
| COc1cc2c(Oc3ccc(NC(=O)c4cn(-c5cc(C)ccc5C)cn4)cc3F)ccnc2cc1OCCCN1CCOCC1 | 1960 nM | 3200 nM | 5480 nM | – |
| COc1cc2c(Oc3ccc(NC(=O)c4cn(-c5cc(C)ccc5C)cn4)cc3F)ccnc2cc1OCCCN1CCN(C)CC1 | 470 nM | 650 nM | 350 nM | – |
| COc1cc2c(Oc3ccc(NC(=O)c4cn(-c5ccccc5OC(F)(F)F)cn4)cc3F)ccnc2cc1OCCCN1CCC(C)CC1 | 690 nM | 150 nM | 760 nM | – |
| COc1cc2c(Oc3ccc(NC(=O)/C=C/S(=O)(=O)c4ccc(C)cc4)cc3F)ccnc2cc1OCCCN1CCN(C)CC1 | 2070 nM | 2510 nM | 1510 nM | – |
| COc1cc2c(Oc3ccc(NC(=O)/C=C/S(=O)(=O)c4ccc(C)cc4)cc3F)ccnc2cc1OCCCN1CCCCC1 | 4230 nM | 1690 nM | 2310 nM | – |
| COc1cc2c(Oc3ccc(NC(=O)c4cn(-c5ccc(Cl)cc5)cn4)cc3F)ccnc2cc1OCCCN1CCN(C)CC1 | 1350 nM | 4110 nM | 5200 nM | – |

Source: ChEMBL document CHEMBL3872279, “Design, synthesis and biological evaluation of novel 4-(2-fluorophenoxy)quinoline derivatives as selective c-Met inhibitors” (Bioorg Med Chem, 2017)
